“And” between values parts separate entries of the source, which are not always exact repeats. Equal entries are not always repeated. Where two headings read alike, the source gives them in different places. Where a SMILES comes first, the peptide text is derived from it. Where no end group is shown, it is not given here. The star is where a group is joined. For = O=C*
How the values were obtained:
[1] = target: T1, WT FPR1 expressed in HeLa cells (human, UniProt P21462 1-350)
T1 sequence (looked up): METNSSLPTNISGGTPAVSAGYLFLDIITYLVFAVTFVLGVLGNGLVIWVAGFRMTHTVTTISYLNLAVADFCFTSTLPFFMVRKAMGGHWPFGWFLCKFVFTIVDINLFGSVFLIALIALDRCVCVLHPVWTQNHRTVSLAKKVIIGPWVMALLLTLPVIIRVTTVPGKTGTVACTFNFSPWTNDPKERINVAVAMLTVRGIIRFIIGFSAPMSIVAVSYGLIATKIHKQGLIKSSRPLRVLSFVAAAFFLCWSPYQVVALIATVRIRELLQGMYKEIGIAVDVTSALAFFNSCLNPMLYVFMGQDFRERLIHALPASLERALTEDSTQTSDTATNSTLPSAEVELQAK

FPR1 WT = target: T2, FPR1 WT (Homo sapiens, UniProt P21462); assay: cAMP inhibition assay, WT FPR1; type: cell-based
T2 construct: expressed in transfected cells; host or cells: HeLa cells, transient, pcDNA3.1(+)
T2 sequence (P21462 1-350): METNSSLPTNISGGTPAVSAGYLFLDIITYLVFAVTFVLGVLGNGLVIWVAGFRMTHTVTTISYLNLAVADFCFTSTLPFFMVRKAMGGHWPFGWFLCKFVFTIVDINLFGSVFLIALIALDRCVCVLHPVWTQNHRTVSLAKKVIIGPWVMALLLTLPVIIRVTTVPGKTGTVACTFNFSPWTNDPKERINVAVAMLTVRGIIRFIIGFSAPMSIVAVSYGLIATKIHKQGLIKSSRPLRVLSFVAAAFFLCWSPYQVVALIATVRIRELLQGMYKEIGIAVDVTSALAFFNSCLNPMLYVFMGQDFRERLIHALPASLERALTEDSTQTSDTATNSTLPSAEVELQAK
Source text: (§1) FPR1 cDNA in the pcDNA3.1(+) vector (Invitrogen) was used as a template for gene manipulation. The mutations of FPR1 were introduced in the receptor through overlap extension PCR with elaborately designed primers (GENEWIZ, Suzhou, China). The sequences of the primers were listed in Supplementary Table 2. Two fragments of FPR1 (separated at mutated positions) were assembled into pre-cut pcDNA3.1(+) vectors with the ClonExpress Ultra One Step Cloning Kit (Vazyme Biotech, C115). Plasmids with FPR1 mutations were confirmed by DNA sequencing (GENEWIZ).
(§2) For functional studies, FPR1 and its mutants were expressed in HeLa cells as above. The cells were resuspended in HBSS buffer plus 5 mM HEPES, 0.1% BSA (w/v) and 0.5 mM 3-isobutyl-1-methylxanthine and seeded into 384-well plates. […] AG-14 was synthesized by Sungening Biotechnology (Shenzhen, China). […] Intracellular cAMP levels were measured with the LANCE Ultra cAMP kit (PerkinElmer, TRF0263) following the manufacturer’s instructions. […] Intracellular cAMP levels were calculated according to the TR-FRET signals of the samples and cAMP standards.
(§3) The data were analyzed with Prism 6.0 (GraphPad, San Diego, CA). […] For cell surface expression, data points were presented as the percentages (mean ± SEM) of the flow cytometry fluorescence signals of WT FPR1. […]

FPR1 R201A [2] = target: T3, FPR1 R201A (Homo sapiens, UniProt P21462, R201A); assay: cAMP inhibition assay, FPR1 R201A; type: cell-based
T3 construct: expressed in transfected cells; host or cells: HeLa cells, transient, pcDNA3.1(+)
T3 sequence (P21462 1-350 R201A): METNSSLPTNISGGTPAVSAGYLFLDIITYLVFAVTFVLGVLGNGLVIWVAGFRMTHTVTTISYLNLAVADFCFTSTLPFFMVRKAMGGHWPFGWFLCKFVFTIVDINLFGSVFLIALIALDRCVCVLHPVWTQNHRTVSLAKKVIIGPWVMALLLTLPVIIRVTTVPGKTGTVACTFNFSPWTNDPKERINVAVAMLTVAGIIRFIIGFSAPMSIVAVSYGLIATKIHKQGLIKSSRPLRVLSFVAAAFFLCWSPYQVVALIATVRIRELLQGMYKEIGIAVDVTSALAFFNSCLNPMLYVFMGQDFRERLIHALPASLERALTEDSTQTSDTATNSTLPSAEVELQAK
Source text: as §1, §2, §3

FPR1 R205A [3] = target: T4, FPR1 R205A (Homo sapiens, UniProt P21462, R205A); assay: cAMP inhibition assay, FPR1 R205A; type: cell-based; parameters: key to cAMP response, source data of Fig. 5c: % of maximal cAMP level for each construct; settings: for cAMP response, source data of Fig. 5c: FPR1 R205A, single replicate readings
T4 construct: expressed in transfected cells; host or cells: HeLa cells, transient, pcDNA3.1(+)
T4 sequence (P21462 1-350 R205A): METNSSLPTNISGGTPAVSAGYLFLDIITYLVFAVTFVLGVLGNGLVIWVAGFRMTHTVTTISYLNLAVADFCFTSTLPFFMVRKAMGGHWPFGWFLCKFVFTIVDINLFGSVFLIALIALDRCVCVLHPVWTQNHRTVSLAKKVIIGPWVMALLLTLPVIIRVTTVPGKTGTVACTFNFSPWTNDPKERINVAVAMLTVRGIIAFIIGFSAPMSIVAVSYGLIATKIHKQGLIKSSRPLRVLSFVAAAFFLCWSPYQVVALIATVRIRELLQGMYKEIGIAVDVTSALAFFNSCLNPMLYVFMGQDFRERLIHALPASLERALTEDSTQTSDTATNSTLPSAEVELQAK
Source text: as §1
as §2, with “China). Different concentrations of the ligands were prepared plus a fixed dose of forskolin with the buffer above.” for “China).”
(§4) The data were analyzed with Prism 6.0 (GraphPad, San Diego, CA). For dose-response analysis, the curves were plotted with the log[agonist] vs. response equation (three parameters) in the software. Data points were presented as the percentages (mean ± SEM) of the maximal cAMP level for each construct, from at least three independent experiments, as indicated in figure legends. The pEC50 values were the negative logarithm of the EC50 values, which were obtained from the dose-response curves. For cell surface expression, data points were presented as the percentages (mean ± SEM) of the flow cytometry fluorescence signals of WT FPR1. For statistical comparison, a p-value of 0.05 or lower is considered statistically significant.

FPR1 F291A = target: T5, FPR1 F291A (Homo sapiens, UniProt P21462, F291A); assay: cAMP inhibition assay, FPR1 F291A; type: cell-based; settings: FPR1 F291A, single replicate readings
T5 construct: expressed in transfected cells; host or cells: HeLa cells, transient, pcDNA3.1(+)
T5 sequence (P21462 1-350 F291A): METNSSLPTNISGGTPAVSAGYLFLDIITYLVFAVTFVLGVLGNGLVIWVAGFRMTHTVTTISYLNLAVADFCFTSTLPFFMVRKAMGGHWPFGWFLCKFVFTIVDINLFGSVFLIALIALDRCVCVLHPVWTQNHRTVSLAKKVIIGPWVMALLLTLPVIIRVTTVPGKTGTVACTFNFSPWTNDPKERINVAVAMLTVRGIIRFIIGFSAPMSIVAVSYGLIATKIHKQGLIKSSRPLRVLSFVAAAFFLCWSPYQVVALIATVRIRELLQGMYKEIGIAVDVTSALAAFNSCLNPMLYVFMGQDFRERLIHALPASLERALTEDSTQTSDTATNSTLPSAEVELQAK
Source text: as §1
as §2, with “China). Different concentrations of the ligands were prepared plus a fixed dose of forskolin with the buffer above.” for “China).”
as §4

FPR1 R84A = target: T6, FPR1 R84A (Homo sapiens, UniProt P21462, R84A); assay: cAMP inhibition assay, FPR1 R84A; type: cell-based; parameters: key to cAMP response, source data of Fig. 5c: % of maximal cAMP level for each construct
T6 construct: expressed in transfected cells; host or cells: HeLa cells, transient, pcDNA3.1(+)
T6 sequence (P21462 1-350 R84A): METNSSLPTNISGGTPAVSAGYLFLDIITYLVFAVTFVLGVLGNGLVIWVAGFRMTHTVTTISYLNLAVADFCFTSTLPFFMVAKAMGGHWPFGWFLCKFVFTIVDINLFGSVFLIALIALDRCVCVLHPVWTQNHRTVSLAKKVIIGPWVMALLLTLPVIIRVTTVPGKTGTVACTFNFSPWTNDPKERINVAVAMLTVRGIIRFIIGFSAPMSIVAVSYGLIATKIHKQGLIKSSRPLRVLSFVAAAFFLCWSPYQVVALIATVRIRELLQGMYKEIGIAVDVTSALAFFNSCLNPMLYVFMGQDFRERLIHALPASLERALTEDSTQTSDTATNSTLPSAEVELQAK
Source text: as §1
as §2, with “China). Different concentrations of the ligands were prepared plus a fixed dose of forskolin with the buffer above.” for “China).”
as §4

FPR1 R201A [4] = target: T7, FPR1 R201A (human, UniProt P21462 1-350, R201A); assay: cell-based or functional assay
T7 sequence (looked up): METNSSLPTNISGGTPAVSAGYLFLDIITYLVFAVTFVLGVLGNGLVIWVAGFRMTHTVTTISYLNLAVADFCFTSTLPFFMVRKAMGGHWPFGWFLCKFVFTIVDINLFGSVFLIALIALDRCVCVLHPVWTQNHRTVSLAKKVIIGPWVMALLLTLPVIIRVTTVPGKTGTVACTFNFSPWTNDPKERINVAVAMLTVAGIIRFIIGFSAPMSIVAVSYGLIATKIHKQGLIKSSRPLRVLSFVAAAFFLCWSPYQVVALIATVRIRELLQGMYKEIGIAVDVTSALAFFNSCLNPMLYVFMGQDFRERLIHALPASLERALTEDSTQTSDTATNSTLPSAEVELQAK

FPR1 R205A [5] = target: T8, FPR1 R205A (human, UniProt P21462 1-350, R205A); assay: cell-based or functional assay
T8 sequence (looked up): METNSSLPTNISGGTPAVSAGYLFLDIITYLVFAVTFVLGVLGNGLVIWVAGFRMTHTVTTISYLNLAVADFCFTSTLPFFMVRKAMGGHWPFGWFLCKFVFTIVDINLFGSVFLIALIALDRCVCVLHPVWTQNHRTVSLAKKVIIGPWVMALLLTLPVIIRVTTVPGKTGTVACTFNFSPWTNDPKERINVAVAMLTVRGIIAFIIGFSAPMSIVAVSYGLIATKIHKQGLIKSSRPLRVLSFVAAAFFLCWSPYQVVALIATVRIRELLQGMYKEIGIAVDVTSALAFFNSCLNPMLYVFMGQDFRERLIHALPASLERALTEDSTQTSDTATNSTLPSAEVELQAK

[6] = target: T1, WT FPR1 expressed in HeLa cells; assay: cell-based or functional assay

## WKYMVm (peptide)
[1]
  pEC50 of inhibition of forskolin-elevated cAMP, transfected HeLa cells: 8.4

## CC[C@H](C)[C@H](NC(=O)[C@H](CCSC)NC=O)C(=O)N[C@@H](Cc1ccccc1)C(=O)N[C@@H](CC(C)C)C(=O)O [fMIFL, fMet-Ile-Phe-Leu] (For-MIFL-OH)
FPR1 WT
  EC50: 0.0631 nM
FPR1 R201A [2]
  EC50: 6.31 nM
FPR1 R205A [3]
  EC50: 2.51 nM

## COc1cc(C=NNC(=O)c2ccc3c(c2)OCO3)ccc1OCc1ccccc1 [Fig. 5c]
FPR1 R205A [3]; Log[M] -4.3
  cAMP response, source data of Fig. 5c: 31.8 and 48.0 and 38.0 and 26.4 and 16.2 and 78.8
FPR1 R205A [3]; Log[M] -5.0
  cAMP response, source data of Fig. 5c: 58.1 and 43.9 and 27.8 and 37.0 and 34.2 and 45.7
FPR1 R205A [3]; Log[M] -5.7
  cAMP response, source data of Fig. 5c: 35.5 and 68.3 and 63.8 and 45.2 and 48.0 and 85.4
FPR1 R205A [3]; Log[M] -6.4
  cAMP response, source data of Fig. 5c: 69.2 and 71.8 and 39.5 and 113.9 and 150.2 and 118.4
FPR1 R205A [3]; Log[M] -7.1
  cAMP response, source data of Fig. 5c: 78.9 and 109.8 and 60.3 and 84.0 and 71.2 and 109.6
FPR1 R205A [3]; Log[M] -7.8
  cAMP response, source data of Fig. 5c: 116.3 and 101.9 and 108.0 and 144.2 and 102.7 and 124.3
FPR1 R205A [3]; Log[M] -8.5
  cAMP response, source data of Fig. 5c: 91.9 and 89.9 and 58.5 and 89.3 and 105.1 and 67.8
FPR1 F291A; Log[M] -4.3
  cAMP response, source data of Fig. 5c: 33.9 and 34.1 and 26.7 and 28.4 and 24.2 and 31.1
FPR1 F291A; Log[M] -5.0
  cAMP response, source data of Fig. 5c: 45.9 and 38.0 and 28.1 and 39.1 and 42.3 and 29.9
FPR1 F291A; Log[M] -5.7
  cAMP response, source data of Fig. 5c: 66.9 and 58.1 and 74.7 and 72.6
FPR1 R84A; Log[M] -4.3, single replicate readings
  cAMP response, source data of Fig. 5c: 37.2 and 21.4 and -4.8 and 34.9 and 32.8 and 41.9
FPR1 R84A; Log[M] -5.0, single replicate readings
  cAMP response, source data of Fig. 5c: 14.6 and -24.6 and 16.2 and 33.5 and 20.2 and 31.4
FPR1 R84A; Log[M] -5.7, single replicate readings
  cAMP response, source data of Fig. 5c: 49.5 and 79.5 and 66.2 and 55.1 and 52.2 and 52.7
FPR1 R84A; Log[M] -6.4, single replicate readings
  cAMP response, source data of Fig. 5c: 79.9 and 58.8 and 61.6 and 91.8 and 112.7 and 81.8
FPR1 R84A; Log[M] -7.1, single replicate readings
  cAMP response, source data of Fig. 5c: 135.9 and 91.7 and 83.9 and 115.6 and 133.7 and 94.7
FPR1 R84A; Log[M] -7.8, single replicate readings
  cAMP response, source data of Fig. 5c: 106.7 and 82.2 and 108.6 and 111.9 and 96.0 and 84.6
FPR1 R84A; Log[M] -8.5, single replicate readings
  cAMP response, source data of Fig. 5c: 91.1 and 94.4 and 114.8 and 80.2 and 111.9 and 117.6

B1: fMet-Ile-Phe-Leu (fMIFL) (peptide)
peptide: For-MIFL
FPR1 R201A [4]
  pEC50 of inhibition of forskolin-elevated cAMP, transfected HeLa cells: 8.2
FPR1 R205A [5]
  pEC50 of inhibition of forskolin-elevated cAMP, transfected HeLa cells: 8.6
[6]
  pEC50 of inhibition of forskolin-elevated cAMP, transfected HeLa cells: 10.2
